Values quoted from earlier work as cited in US20040242698A1, “Analeptic and antidepressant combinations” (Cephalon Inc., priority 2003, published 2004).

Legend:
canines = settings: Shelton et al., 1995
[1] = system: English bulldog sleep disordered breathing model; settings: sleep apnea model; Panckeri et al, 1996
narcoleptic canine = settings: narcolepsy model; Shelton et al, 1995
cats = settings: Lin et al., 1992
non-human primates = settings: Hernant et al, 1991
rats = settings: Touret et al., 1995, Edgar and Seidel, 1997
[2] = system: major depressive disorder; settings: at 6 weeks

| Structure (SMILES) | wakefulness (canines) | wakefulness [1] | wakefulness (narcoleptic canine) | wakefulness (cats) | wakefulness (non-human primates) | wakefulness (rats) | response [2] |
| --- | --- | --- | --- | --- | --- | --- | --- |
| NC(=O)C[S+]([O-])C(c1ccccc1)c1ccccc1 (stereo not shown) [Modafinil, 2-(benzhydrylsulfinyl) acetamide] | promotes wakefulness | promotes wakefulness | promotes wakefulness | promotes wakefulness | promotes wakefulness | promotes wakefulness |  |
| CNCCC(Oc1ccc(C(F)(F)F)cc1)c1ccccc1 (stereo not shown) [fluoxetine] |  |  |  |  |  |  | about 50% |
